Series [1] has as its target Recombinant full length human OGA enzyme (Homo sapiens (Human), UniProt O60502). In words: OGA Enzyme Inhibition Biochemical Assay. As to conditions: 1 nM OGA, 100 μM 4-MUGlcNAc, pH 6.4. The method, boiled down: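 Full-length recombinant human OGA with fluorogenic 4-MUGlcNAc in McIlvaine buffer pH 6.4, 0.01% BSA; 90 min at room temperature, glycine pH 10 quench, fluorescence Ex 355/Em 460 nm. 10-point, 4-fold dilution from 20 μM; 4-parameter variable-slope fit.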

In series [2] the target is OGA (S400 O-GLCNAC), HEK-293T cells transfected with Tau-V5 (Homo sapiens (Human), UniProt O60502). In words: Cellular OGA-Tau MSD Assay. Format: cell-based. Particulars: HEK-293T cells, Tau-S400-GlcNAc MSD readout. The method in brief:
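HEK-293T cells transfected with OGA and Tau-V5 plasmids were treated overnight at 37° C with a 10-point, 3-fold titration from 1 uM. Lysates went onto V5-antibody MSD plates to capture Tau, probed with a Tau O-GlcNAc antibody and read by electrochemiluminescence; IC50 from a 4-parameter fit.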

The test system of another series is P-gp (MDR1). Kind of series: MDR1-MDCK Efflux Ratio Assay. It counts as in vitro ADME. As to conditions: dog, MDCK-MDR1, pH 7.4, MDR1-MDCK cells, 2 hr, pH 7.4; read-out: MDR1-MDCK Efflux Ratio (B-A/A-B). The method, boiled down: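 Bidirectional (apical↔basolateral) transport across confluent MDR1-MDCK monolayers in HBSS/10 mM HEPES pH 7.4, receiver buffer with 1% BSA; 2 hr at 37° C, 5% CO2. Donor sampled at 0 and 120 min, receiver at 120 min, quantified by LC-MS/MS in triplicate. Papp, efflux ratio and percent recovery calculated.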

Series [3] can be described thus: Rat Liver Microsome Stability Assay. Format: in vitro ADME. Particulars: rat liver microsomes, 1 uM compound.

pIC50: −log10 of the molar value. Some results are limits rather than exact numbers.

OGA (S400 O-GLCNAC), HEK-293T cells transfected with Tau-V5, sequence (O60502 whole entry): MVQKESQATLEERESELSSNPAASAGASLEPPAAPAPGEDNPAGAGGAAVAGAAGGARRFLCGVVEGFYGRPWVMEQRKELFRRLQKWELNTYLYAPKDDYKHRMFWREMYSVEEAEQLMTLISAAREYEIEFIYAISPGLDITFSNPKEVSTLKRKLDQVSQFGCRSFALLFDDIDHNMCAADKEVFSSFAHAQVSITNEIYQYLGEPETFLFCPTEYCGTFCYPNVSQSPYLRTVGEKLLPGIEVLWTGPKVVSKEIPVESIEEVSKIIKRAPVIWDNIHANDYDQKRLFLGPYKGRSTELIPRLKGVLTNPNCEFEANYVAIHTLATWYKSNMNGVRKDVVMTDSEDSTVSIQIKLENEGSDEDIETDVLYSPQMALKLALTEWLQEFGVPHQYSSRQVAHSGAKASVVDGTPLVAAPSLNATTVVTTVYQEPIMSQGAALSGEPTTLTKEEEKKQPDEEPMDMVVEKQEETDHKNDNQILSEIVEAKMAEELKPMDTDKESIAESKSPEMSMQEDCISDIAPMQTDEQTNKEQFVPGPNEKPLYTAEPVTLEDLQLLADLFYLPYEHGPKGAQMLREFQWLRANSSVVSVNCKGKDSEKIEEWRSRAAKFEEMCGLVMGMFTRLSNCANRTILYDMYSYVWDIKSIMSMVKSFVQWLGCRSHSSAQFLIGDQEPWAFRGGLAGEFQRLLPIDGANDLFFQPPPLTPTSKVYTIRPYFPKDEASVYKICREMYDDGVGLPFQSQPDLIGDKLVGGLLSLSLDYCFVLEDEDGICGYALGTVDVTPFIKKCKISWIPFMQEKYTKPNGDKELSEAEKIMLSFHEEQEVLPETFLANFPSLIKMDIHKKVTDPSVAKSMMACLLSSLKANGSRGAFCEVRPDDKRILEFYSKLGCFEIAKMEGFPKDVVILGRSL
Recombinant full length human OGA enzyme, sequence (O60502 whole entry): as above

`COc1ccnc(O[C@@H]2C[C@H](C)N(Cc3sc(NC(C)=O)nc3F)C2)n1` [Example 1-91, N-(4-fluoro-5-(((2S,4R)-4-((4-methoxypyrimidin-2-yl)oxy)-2-methylpyrrolidin-1-yl)methyl)thiazol-2-yl)acetamide]: the pIC50 in series [1] and in series [2] was greater than 9.00 throughout. Further, the efflux ratio at 2 h with P-gp (MDR1) was 9.9. The “RLM % Qh (%)” value in series [3] came out at 81%.
Take `COc1nccc(O[C@@H]2C[C@H](C)N(Cc3sc(NC(C)=O)nc3F)C2)n1` [Example 1-92, N-(4-fluoro-5-(((2S,4R)-4-((2-methoxypyrimidin-4-yl)oxy)-2-methylpyrrolidin-1-yl)methyl)thiazol-2-yl)acetamide]: the results for the pIC50 in series [1] and in series [2] were greater than 9.00 and 9.00, respectively. In addition, in the series with P-gp (MDR1), the efflux ratio at 2 h was found to be 10. In series [3], the “RLM % Qh (%)” value is recorded as 54%.
The matching figures for `CC(=O)Nc1nc(F)c(CN2C[C@H](Oc3ncccn3)C[C@@H]2C)s1` [Example 1-93, N-(4-fluoro-5-(((2S,4R)-2-methyl-4-(pyrimidin-2-yloxy)pyrrolidin-1-yl)methyl)thiazol-2-yl)acetamide]: greater than 9.00, 8.70, 14.3 and 42%.
Consider `CC(=O)Nc1nc(F)c(CN2C[C@H](Oc3ncccc3F)C[C@@H]2C)s1` [Example 1-94, N-(4-fluoro-5-(((2S,4R)-4-((3-fluoropyridin-2-yl)oxy)-2-methylpyrrolidin-1-yl)methyl)thiazol-2-yl)acetamide], for which the pIC50 in series [1] is greater than 9.00; in series [2] it was 8.70. Further, in the series with P-gp (MDR1), the efflux ratio at 2 h was 1.8. Besides, the “RLM % Qh (%)” value in series [3] worked out at 91%.
The matching figures for `CC(=O)Nc1nc(F)c(CN2C[C@H](Oc3ncc(Cl)cn3)C[C@@H]2C)s1` [Example 1-95, N-(5-(((2S,4R)-4-((5-chloropyrimidin-2-yl)oxy)-2-methylpyrrolidin-1-yl)methyl)-4-fluorothiazol-2-yl)acetamide]: greater than 9.00, 9.00, 3.6 and 72%.
The matching figures for `CC(=O)Nc1nc(F)c(CN2C[C@H](Oc3cc(F)ccn3)C[C@@H]2C)s1` [Example 1-96, N-(4-fluoro-5-(((2S,4R)-4-((4-fluoropyridin-2-yl)oxy)-2-methylpyrrolidin-1-yl)methyl)thiazol-2-yl)acetamide]: greater than 9.00, 9.00, 1.2 and 86%.
The matching figures for `CC(=O)Nc1nc(F)c(CN2C[C@H](Oc3ccnc(F)c3)C[C@@H]2C)s1` [Example 1-97, N-(4-fluoro-5-(((2S,4R)-4-((2-fluoropyridin-4-yl)oxy)-2-methylpyrrolidin-1-yl)methyl)thiazol-2-yl)acetamide]: greater than 9.00, 8.52, 3.7 and 52%.
As to `COc1ccc(O[C@@H]2C[C@H](C)N(Cc3sc(NC(C)=O)nc3F)C2)nc1` [Example 1-98, N-(4-fluoro-5-(((2S,4R)-4-((5-methoxypyridin-2-yl)oxy)-2-methylpyrrolidin-1-yl)methyl)thiazol-2-yl)acetamide], the negative-log IC50 (pIC50) in series [1] was greater than 9.00; in series [2], 9.00. For the same compound, in the series on P-gp (MDR1), the efflux ratio at 2 h turned out to be 2.1. Also, the “RLM % Qh (%)” value in series [3] turned out to be 93%.
`COc1cccc(O[C@@H]2C[C@H](C)N(Cc3sc(NC(C)=O)nc3F)C2)n1` [Example 1-99, N-(4-fluoro-5-(((2S,4R)-4-((6-methoxypyridin-2-yl)oxy)-2-methylpyrrolidin-1-yl)methyl)thiazol-2-yl)acetamide]: the pIC50 in series [1] was greater than 9.00; in series [2], 9.00. Also, the efflux ratio at 2 h in the series with P-gp (MDR1) came to 2.2. Also, the “RLM % Qh (%)” value in series [3] was 95%.

The values are drawn from US20240308995A1, “O-GLYCOPROTEIN-2-ACETAMIDO-2-DEOXY-3-D-GLUCOPYRANOSIDASE INHIBITORS” (BIOGEN MA INC., priority 2018, published 2024).
